#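 Cultured in 96-well plates, cells were exposed to test compound for 48 hours across five concentrations. TGI is the concentration that stops growth completely.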
# System: MOLT-4 leukemia
# Experiment: DTP human tumour cell line panel, 48 h
row,Compound,TGI [µM]
1,COc1cccc2c1N[S@](=O)S2,> 100

# System: NCI-H226 lung
# Experiment: DTP human tumour cell line panel, 48 h
row,Compound,TGI [µM]
1,CC(N)Cc1ccc(F)cc1 (centres undefined),> 100
2,CNCCCCN(C)/[N+]([O-])=N\O,> 100
3,CCNC(=O)N(CC)CN(CC)C(=O)NCC,> 100
4,O=C(CCc1n[nH]c(=S)o1)Nc1ccc(Cl)cc1Cl,> 100
5,COc1cccc2c1N[S@](=O)S2,> 100

# System: NCI-H23 lung
# Experiment: DTP human tumour cell line panel, 48 h
row,Compound,TGI [µM]
1,CC(N)Cc1ccc(F)cc1 (centres undefined),> 100
2,CNCCCCN(C)/[N+]([O-])=N\O,> 100
3,O=C(CCc1n[nH]c(=S)o1)Nc1ccc(Cl)cc1Cl,> 100
4,COc1cccc2c1N[S@](=O)S2,> 100

# System: NCI-H460 lung
# Experiment: DTP human tumour cell line panel, 48 h
row,Compound,TGI [µM]
1,CC(N)Cc1ccc(F)cc1 (centres undefined),> 100
2,CNCCCCN(C)/[N+]([O-])=N\O,> 100
3,O=C(CCc1n[nH]c(=S)o1)Nc1ccc(Cl)cc1Cl,> 100

# System: NCI-H522 lung
# Experiment: DTP human tumour cell line panel, 48 h
row,Compound,TGI [µM]
1,CC(N)Cc1ccc(F)cc1 (centres undefined),> 100
2,CNCCCCN(C)/[N+]([O-])=N\O,> 100
3,CCNC(=O)N(CC)CN(CC)C(=O)NCC,> 100
4,O=C(CCc1n[nH]c(=S)o1)Nc1ccc(Cl)cc1Cl,> 100
5,COc1cccc2c1N[S@](=O)S2,> 100

# System: OVCAR-3 ovarian
# Experiment: DTP human tumour cell line panel, 48 h
row,Compound,TGI [µM]
1,CC(N)Cc1ccc(F)cc1 (centres undefined),> 100
2,CNCCCCN(C)/[N+]([O-])=N\O,> 100
3,CCNC(=O)N(CC)CN(CC)C(=O)NCC,> 100
4,O=C(CCc1n[nH]c(=S)o1)Nc1ccc(Cl)cc1Cl,> 100
5,COc1cccc2c1N[S@](=O)S2,> 100

# System: OVCAR-4 ovarian
# Experiment: DTP human tumour cell line panel, 48 h
row,Compound,TGI [µM]
1,CC(N)Cc1ccc(F)cc1 (centres undefined),> 100
2,CNCCCCN(C)/[N+]([O-])=N\O,> 100
3,O=C(CCc1n[nH]c(=S)o1)Nc1ccc(Cl)cc1Cl,> 100

# System: OVCAR-5 ovarian
# Experiment: DTP human tumour cell line panel, 48 h
row,Compound,TGI [µM]
1,CC(N)Cc1ccc(F)cc1 (centres undefined),> 100
2,CNCCCCN(C)/[N+]([O-])=N\O,> 100
3,CCNC(=O)N(CC)CN(CC)C(=O)NCC,> 100
4,O=C(CCc1n[nH]c(=S)o1)Nc1ccc(Cl)cc1Cl,> 100

# System: OVCAR-8 ovarian
# Experiment: DTP human tumour cell line panel, 48 h
row,Compound,TGI [µM]
1,CC(N)Cc1ccc(F)cc1 (centres undefined),> 100
2,CNCCCCN(C)/[N+]([O-])=N\O,> 100
3,CCNC(=O)N(CC)CN(CC)C(=O)NCC,> 100
4,O=C(CCc1n[nH]c(=S)o1)Nc1ccc(Cl)cc1Cl,> 100

# System: RPMI-8226 leukemia
# Experiment: DTP human tumour cell line panel, 48 h
row,Compound,TGI [µM]
1,CC(N)Cc1ccc(F)cc1 (centres undefined),> 100
2,CNCCCCN(C)/[N+]([O-])=N\O,> 100
3,CCNC(=O)N(CC)CN(CC)C(=O)NCC,> 100
4,O=C(CCc1n[nH]c(=S)o1)Nc1ccc(Cl)cc1Cl,44.4
5,COc1cccc2c1N[S@](=O)S2,> 100

# System: RXF 393 renal
# Experiment: DTP human tumour cell line panel, 48 h
row,Compound,TGI [µM]
1,CC(N)Cc1ccc(F)cc1 (centres undefined),> 100
2,CNCCCCN(C)/[N+]([O-])=N\O,> 100

# System: RXF-631 renal
# Experiment: DTP human tumour cell line panel, 48 h
row,Compound,TGI [µM]
1,CC(N)Cc1ccc(F)cc1 (centres undefined),> 100
2,CNCCCCN(C)/[N+]([O-])=N\O,> 100
3,CCNC(=O)N(CC)CN(CC)C(=O)NCC,> 100
4,O=C(CCc1n[nH]c(=S)o1)Nc1ccc(Cl)cc1Cl,> 100
5,COc1cccc2c1N[S@](=O)S2,> 100

# System: SF-268 CNS
# Experiment: DTP human tumour cell line panel, 48 h
row,Compound,TGI [µM]
1,CC(N)Cc1ccc(F)cc1 (centres undefined),> 100
2,CNCCCCN(C)/[N+]([O-])=N\O,> 100
3,CCNC(=O)N(CC)CN(CC)C(=O)NCC,> 100
4,O=C(CCc1n[nH]c(=S)o1)Nc1ccc(Cl)cc1Cl,> 100
5,COc1cccc2c1N[S@](=O)S2,> 100

# System: SF-295 CNS
# Experiment: DTP human tumour cell line panel, 48 h
row,Compound,TGI [µM]
1,CC(N)Cc1ccc(F)cc1 (centres undefined),> 100
2,CNCCCCN(C)/[N+]([O-])=N\O,> 100
3,CCNC(=O)N(CC)CN(CC)C(=O)NCC,> 100
4,O=C(CCc1n[nH]c(=S)o1)Nc1ccc(Cl)cc1Cl,> 100
5,COc1cccc2c1N[S@](=O)S2,> 100

# System: SF-539 CNS
# Experiment: DTP human tumour cell line panel, 48 h
row,Compound,TGI [µM]
1,CC(N)Cc1ccc(F)cc1 (centres undefined),> 100
2,CNCCCCN(C)/[N+]([O-])=N\O,> 100
3,CCNC(=O)N(CC)CN(CC)C(=O)NCC,> 100
4,O=C(CCc1n[nH]c(=S)o1)Nc1ccc(Cl)cc1Cl,> 100
5,COc1cccc2c1N[S@](=O)S2,> 100

# System: SK-MEL-2 melanoma
# Experiment: DTP human tumour cell line panel, 48 h
row,Compound,TGI [µM]
1,CC(N)Cc1ccc(F)cc1 (centres undefined),> 100
2,CNCCCCN(C)/[N+]([O-])=N\O,> 100
3,CCNC(=O)N(CC)CN(CC)C(=O)NCC,> 100
